Test results: article PMC8595653, “Activation of specific bitter taste receptors by olive oil phenolics and secoiridoids” (Scientific Reports, 2021)
Entries after “also recorded” stand apart in the source; their conditions may differ. Values belong to the compound of their own block, whether it stands above or below them.

Legend:
TAS2R5 = molecular target: T1, TAS2R5 (Homo sapiens, UniProt Q9NYW4); test: Calcium mobilization functional assay, TAS2R5; format: cell-based; settings: 1 mM, versus empty pcDNA vector
T1 construct: first 45 amino acids of rat somatostatin type 3 receptor (SSTR3) export tag (N); expressed in transfected cells; host or cells: HEK293E
From the text: (§1) All constructs were confirmed by DNA sequencing.
(§2) Data from single dose experiments were collected as duplicates. […] Data represent mean ± SD.

TAS2R10 = molecular target: T2, TAS2R10 (Homo sapiens, UniProt Q9NYW0); test: Calcium mobilization functional assay, TAS2R10; format: cell-based; settings: 30 µM, versus empty pcDNA vector
T2 construct: first 45 amino acids of rat somatostatin type 3 receptor (SSTR3) export tag (N); expressed in transfected cells; host or cells: HEK293E
From the text: as §1, §2

TAS2R7 = molecular target: T3, TAS2R7 (Homo sapiens, UniProt Q9NYW3); test: Calcium mobilization functional assay, TAS2R7; format: cell-based; settings: 10 mM, versus empty pcDNA vector
T3 construct: first 45 amino acids of rat somatostatin type 3 receptor (SSTR3) export tag (N); expressed in transfected cells; host or cells: HEK293E
From the text: as §1, §2

TAS2R3 = molecular target: T4, TAS2R3 (Homo sapiens, UniProt Q9NYW6); test: Calcium mobilization functional assay, TAS2R3; format: cell-based; settings: 10 mM, versus empty pcDNA vector
T4 construct: first 45 amino acids of rat somatostatin type 3 receptor (SSTR3) export tag (N); expressed in transfected cells; host or cells: HEK293E
From the text: as §1, §2

TAS2R13 = molecular target: T5, TAS2R13 (Homo sapiens, UniProt Q9NYV9); test: Calcium mobilization functional assay, TAS2R13; format: cell-based; settings: 10 mM, versus empty pcDNA vector
T5 construct: first 45 amino acids of rat somatostatin type 3 receptor (SSTR3) export tag (N); expressed in transfected cells; host or cells: HEK293E
From the text: as §1, §2

TRPA1 receptor/channels = test system: TRPA1 receptor/channels; parameters: method as in PMID 21248124; settings: cited from earlier work
25 human TAS2Rs = test: Single dose scanning of phenolic compounds on the 25 bitter taste receptors (calcium mobilization, HEK293E); format: cell-based; settings: single dose 300 µM, 25 TAS2Rs, N = 2
Procedure: as §1, §2
To characterize the bitterness of olive oil phenolic compounds, we performed calcium mobilization experiments. The 25 bitter taste receptors, G protein chimera (Gα16-gus44), and the GCaMP calcium sensor[68] were transiently expressed in HEK293E cells. Twelve olive oil phenolic compounds (Fig. 1) were tested for bitter taster receptor activation (Fig. 3). […] Ligstroside aglycon, and Oleuropein aglycon activated TAS2R1, TAS2R8 and TAS2R14 receptors. To validate the single dose scanning results, we performed concentration–response experiments for all the compounds toward receptors TAS2R1, TAS2R8, and TAS2R14 that produced the most significant responses (Fig. 4).
Figure 3 Phenolic compound bitter taste activity tests on hTAS2Rs. Relative fluorescence signals caused by phenolic compound activation of the receptors and the empty vector as a negative control. The concentration of the compounds used was [300 µM], except for Ligstroside aglycon and Oleuropein aglycon [200 µM], oleuropein that was [3 mM]. The asterisks indicate significant differences tested by one-way ANOVA (***p < 0.0001) (N = 2). Data represent mean ± SD.

TAS2R16 = molecular target: T6, TAS2R16 (Homo sapiens, UniProt Q9NYV7); test: Calcium mobilization functional assay, TAS2R16; format: cell-based; settings: 10 mM, versus empty pcDNA vector
T6 construct: first 45 amino acids of rat somatostatin type 3 receptor (SSTR3) export tag (N); expressed in transfected cells; host or cells: HEK293E
From the text: as §1, §2

TAS2R9 = molecular target: T7, TAS2R9 (Homo sapiens, UniProt Q9NYW1); test: Calcium mobilization functional assay, TAS2R9; format: cell-based; settings: 20 mM, versus empty pcDNA vector
T7 construct: first 45 amino acids of rat somatostatin type 3 receptor (SSTR3) export tag (N); expressed in transfected cells; host or cells: HEK293E
From the text: as §1, §2

T6 sequence (Q9NYV7 whole entry): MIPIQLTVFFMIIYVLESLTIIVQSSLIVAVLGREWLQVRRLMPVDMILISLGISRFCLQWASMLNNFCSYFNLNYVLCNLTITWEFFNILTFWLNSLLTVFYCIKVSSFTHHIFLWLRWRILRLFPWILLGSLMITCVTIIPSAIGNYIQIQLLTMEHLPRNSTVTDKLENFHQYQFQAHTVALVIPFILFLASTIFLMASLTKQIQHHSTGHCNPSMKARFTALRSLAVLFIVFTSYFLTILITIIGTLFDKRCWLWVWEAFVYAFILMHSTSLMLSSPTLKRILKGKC
T1 sequence (Q9NYW4 whole entry): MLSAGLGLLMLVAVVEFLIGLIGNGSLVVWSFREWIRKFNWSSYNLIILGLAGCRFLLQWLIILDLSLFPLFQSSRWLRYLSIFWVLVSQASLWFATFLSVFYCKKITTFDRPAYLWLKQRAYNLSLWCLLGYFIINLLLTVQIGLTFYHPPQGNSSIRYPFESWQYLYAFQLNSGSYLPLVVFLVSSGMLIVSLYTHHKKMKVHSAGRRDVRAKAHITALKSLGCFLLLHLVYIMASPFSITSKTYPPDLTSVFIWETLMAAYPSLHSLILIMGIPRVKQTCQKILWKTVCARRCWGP
T7 sequence (Q9NYW1 whole entry): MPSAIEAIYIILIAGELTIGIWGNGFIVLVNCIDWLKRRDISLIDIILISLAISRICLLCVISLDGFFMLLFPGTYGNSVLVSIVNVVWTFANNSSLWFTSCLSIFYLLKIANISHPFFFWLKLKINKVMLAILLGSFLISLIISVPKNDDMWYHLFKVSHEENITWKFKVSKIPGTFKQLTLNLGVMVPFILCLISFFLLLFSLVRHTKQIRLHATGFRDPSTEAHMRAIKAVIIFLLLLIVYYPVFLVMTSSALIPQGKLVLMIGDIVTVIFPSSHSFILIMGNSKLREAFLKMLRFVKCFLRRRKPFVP
T3 sequence (Q9NYW3 whole entry): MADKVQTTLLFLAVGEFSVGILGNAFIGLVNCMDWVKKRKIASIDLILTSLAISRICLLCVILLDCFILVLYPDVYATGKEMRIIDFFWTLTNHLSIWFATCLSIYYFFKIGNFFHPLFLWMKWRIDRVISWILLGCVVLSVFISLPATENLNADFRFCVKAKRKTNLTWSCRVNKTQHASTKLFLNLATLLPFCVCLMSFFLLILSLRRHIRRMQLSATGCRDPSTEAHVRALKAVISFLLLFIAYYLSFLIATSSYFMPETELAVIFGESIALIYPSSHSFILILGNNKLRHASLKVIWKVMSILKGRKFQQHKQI
T2 sequence (Q9NYW0 whole entry): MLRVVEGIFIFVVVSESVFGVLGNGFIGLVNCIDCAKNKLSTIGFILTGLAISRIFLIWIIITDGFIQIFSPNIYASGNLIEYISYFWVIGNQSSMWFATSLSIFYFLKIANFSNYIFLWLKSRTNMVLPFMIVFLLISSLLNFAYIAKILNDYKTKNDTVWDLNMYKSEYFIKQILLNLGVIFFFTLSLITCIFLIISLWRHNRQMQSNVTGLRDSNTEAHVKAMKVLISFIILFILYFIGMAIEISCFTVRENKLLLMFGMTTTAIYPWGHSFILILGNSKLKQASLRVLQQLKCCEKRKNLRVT
T5 sequence (Q9NYV9 whole entry): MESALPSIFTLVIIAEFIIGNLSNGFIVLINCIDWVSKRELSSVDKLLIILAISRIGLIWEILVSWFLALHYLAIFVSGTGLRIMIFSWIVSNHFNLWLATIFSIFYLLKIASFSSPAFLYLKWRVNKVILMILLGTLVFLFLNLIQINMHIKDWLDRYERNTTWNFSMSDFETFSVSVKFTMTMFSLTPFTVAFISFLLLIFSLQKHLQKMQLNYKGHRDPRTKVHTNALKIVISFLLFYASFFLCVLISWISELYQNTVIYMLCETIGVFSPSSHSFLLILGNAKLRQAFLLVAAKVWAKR
T4 sequence (Q9NYW6 whole entry): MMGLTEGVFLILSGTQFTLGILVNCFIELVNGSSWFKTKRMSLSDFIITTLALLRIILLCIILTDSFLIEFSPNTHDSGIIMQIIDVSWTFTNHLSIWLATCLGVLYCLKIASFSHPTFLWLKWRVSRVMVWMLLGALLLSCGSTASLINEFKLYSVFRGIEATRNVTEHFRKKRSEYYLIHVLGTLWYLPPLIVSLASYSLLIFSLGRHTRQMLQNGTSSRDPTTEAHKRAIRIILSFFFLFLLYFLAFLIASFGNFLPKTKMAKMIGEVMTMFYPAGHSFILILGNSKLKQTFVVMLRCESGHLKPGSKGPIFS

SMILES: CC(=O)OC(C)(C)/C=C/C(=O)[C@](C)(O)[C@H]1[C@H](O)C[C@@]2(C)[C@@H]3CC=C4[C@@H](C=C(O)C(=O)C4(C)C)[C@]3(C)C(=O)C[C@]12C [cucurbitacin E]
- activation of TAS2R10 (TAS2R10): activated

SMILES: CCN(CC)CCCC(C)Nc1ccnc2cc(Cl)ccc12 (stereo not shown) [chloroquine]
- activation of TAS2R7 (TAS2R7): activated
- activation of TAS2R3 (TAS2R3): activated

SMILES: OCc1ccccc1O[C@@H]1O[C@H](CO)[C@@H](O)[C@H](O)[C@H]1O [salicin]
- activation of TAS2R16 (TAS2R16): activated

SMILES: CCN(CC)CCNC(=O)c1ccc(N)cc1 [procainamide]
- activation of TAS2R9 (TAS2R9): activated

The next lines start with results.

- activation of TAS2R5 (TAS2R5): activated
SMILES: c1cnc2c(c1)ccc1cccnc12 [1,10-phenanthroline]

- activation of TAS2R13 (TAS2R13): activated
SMILES: CC[N+](C)(CC)CCOC(=O)C(O)(c1ccccc1)C1CCCCC1 (stereo not shown) [oxyphenonium]

- activation of any TAS2R (25 human TAS2Rs): did not activate any TAS2Rs
SMILES: C/C=C(/C=O)[C@@H](CC=O)CC(=O)OCCc1ccc(O)cc1 [Oleocanthal, oleocanthal]
- activation of TRPA1 receptor/channels (TRPA1 receptor/channels): activates
- activation of any TAS2R (25 human TAS2Rs; listed as oleocanthal): did not show any activation of bitter receptors; also recorded: failed to activate any TAS2Rs
